In patent publication US20120115793A1, “PEPTIDOMIMETIC MACROCYCLES” (Alleron Therapeutics, Inc, priority 2008, published 2012):
Where a SMILES comes first, the peptide text is derived from it. Bridges are numbered along the chain shown (N, C = ends). [ ]: non-standard residue; d: D form. R8 = C=CCCCCCC[C@@](C)(N)C(=O)O; S5 = C=CCCC[C@](C)(N)C(=O)O; Abu = CC[C@H](N)C(=O)O

System: Molt-4 cell line
Assay type: cell-based
Conditions: 48 h
Method: Molt-4 cell line (ATCC catalog #CRL-1582) was grown in specific serum-supplemented media (RPMI-1640, Invitrogen catalog #72400) as recommended by ATCC. A day prior to the initiation of the study, cells were split at optimal cell density (2×10^5-5×10^5 cells/ml) to assure actively dividing cells. The next day, cells were washed twice in serum-free Opti-MEM media (Invitrogen, Catalog #51985) and cells were then plated at optimal cell density (10,000 cells/well) in 50 μl Opti-MEM media or Opti-MEM supplemented with 2%, 4% or 10% human serum (Bioreclamation, catalog #HMSRM) in 96-well white tissue culture plate (Nunc, catalog #136102).
For serum free experiment, peptidomimetic macrocycles were diluted from 2 mM stocks (100% DMSO) in sterile water to prepare 400 μM working solutions. The macrocycles and controls were diluted 10-fold first and then serially two-fold diluted in Opti-MEM in dosing plates to provide concentrations of between 1.2 and 40 μM. 50 μL of each dilution was then added to the appropriate wells of the test plate to achieve final concentrations of the polypeptides equal to between 0.6 to 20 μM. For studies using Opti-MEM supplemented with human serum (Bioreclamation, catalog #HMSRM), peptidomimetic macrocycles were diluted from 10 mM stocks (100% DMSO) in sterile water to prepare 2 mM working solutions. The peptide macrocycles and controls were diluted 10-fold first and then serially two-fold diluted in Opti-MEM in the presence of 2%, 4% or 10% of human serum to provide concentrations of the polypeptides equal to between 6.25 to 200 μM in dosing plates. 50 μL of each dilution was then added to the appropriate welts of the test plate to achieve final concentrations of the polypeptides equal to between 3.125 to 100 μM. Controls included wells without polypeptides containing the same concentration of DMSO as the wells containing the macrocycles, wells containing 0.1% Triton X-100 and wells containing no cells. Plates were incubated for 48 hours at 37° C. in humidified 5% CO2 atmosphere.
At the end of the incubation period, CellTiter-Glo assay was performed according to manufacturer's instructions (Promega, catalog #G7573) and luminescence was measured using Synergy HT Plate reader (BioTek).
The following macrocycles derived from the human MAML peptide sequences were tested in cell viability assays with the MOLT-4 tumor cell line: […]

| EC50 [µM] | SMILES |
| --- | --- |
| ≥ 24.4 | CC[C@H](C)[C@H](NC(=O)[C@H](CCCNC(=N)N)NC(=O)[C@H](CCCNC(=N)N)NC(=O)[C@H](CCCNC(=N)N)NC(=O)[C@H](CC(C)C)NC(=O)[C@H](C)NC(C)=O)C(=O)N[C@@]1(C)CCCC=CCCC[C@@](C)(C(=O)N[C@@H](Cc2c[nH]cn2)C(=O)N[C@@H](Cc2c[nH]cn2)C(=O)N[C@@H](CO)C(=O)N[C@H](C(N)=O)[C@@H](C)O)NC(=O)[C@H](C)NC(=O)[C@H](C)NC(=O)[C@H](CC(C)C)NC1=O [Compound 20, Ac-ALRRRI$LAA$HHST-NH2] (Ac-ALRRRI[S5]LAA[S5]HHST-NH2; staple 7-11) |
| > 20 | CC[C@@H]1NC(=O)[C@H](CC(C)C)NC(=O)[C@@](C)(NC(=O)[C@@H](NC(=O)[C@H](CCCNC(=N)N)NC(=O)[C@H](CCCNC(=N)N)NC(=O)[C@H](CCCNC(=N)N)NC(=O)[C@H](CC(C)C)NC(=O)[C@H](C)NC(C)=O)[C@@H](C)CC)CCCC=CCCC[C@@](C)(C(=O)N[C@@H](Cc2c[nH]cn2)C(=O)N[C@@H](Cc2c[nH]cn2)C(=O)N[C@@H](CO)C(=O)N[C@H](C(=O)N[C@@H](C)C(=O)N[C@@H](CCC(=O)O)C(=O)N[C@@H](C)C(=O)N[C@@H](CCCNC(=N)N)C(=O)N[C@@H](Cc2ccc(O)cc2)C(=O)N[C@@H](CCC(=O)O)C(=O)N[C@@H](C)C(=O)N[C@H](C(N)=O)C(C)C)[C@@H](C)O)NC(=O)[C@H](C)NC1=O [Compound 26, Ac-ALRRRI$LAbuA$HHSTAEARYEAV-NH2] (Ac-ALRRRI[S5]L[Abu]A[S5]HHSTAEARYEAV-NH2; staple 7-11) |
| > 20 | CC[C@H](C)[C@H](NC(=O)[C@H](CCCNC(=N)N)NC(=O)[C@H](CCCNC(=N)N)NC(=O)[C@H](CCCNC(=N)N)NC(=O)[C@H](CC(C)C)NC(=O)[C@H](CCCNC(=N)N)NC(=O)[C@H](CCC(=O)O)NC(C)=O)C(=O)N[C@@H](CCC(=O)O)C(=O)N[C@@H](CC(C)C)C(=O)N[C@@H](C)C(=O)N[C@@H](C)C(=O)N[C@@H](CCCNC(=N)N)C(=O)N[C@@H](Cc1c[nH]cn1)C(=O)N[C@@H](Cc1c[nH]cn1)C(=O)N[C@@]1(C)CCCC=CCCC[C@@](C)(C(=O)N[C@@H](CCCNC(=N)N)C(=O)N[C@@H](Cc2ccc(O)cc2)C(=O)N[C@@H](CCC(=O)O)C(=O)N[C@@H](C)C(=O)N[C@H](C(N)=O)C(C)C)NC(=O)[C@H](CCC(=O)O)NC(=O)[C@H](C)NC(=O)[C@H]([C@@H](C)O)NC1=O [Compound 22, Ac-ERLRRRIELAARHH$TAE$RYEAV-NH2] (Ac-ERLRRRIELAARHH[S5]TAE[S5]RYEAV-NH2; staple 15-19) |
| > 20 | CC[C@H](C)[C@H](NC(=O)[C@H](CCCNC(=N)N)NC(=O)[C@H](CCCNC(=N)N)NC(C)=O)C(=O)N[C@@H](CCC(=O)O)C(=O)N[C@@H](CC(C)C)C(=O)N[C@@H](C)C(=O)N[C@@H](CCCNC(=N)N)C(=O)N[C@@H](CCCNC(=N)N)C(=O)N[C@@H](Cc1c[nH]cn1)C(=O)N[C@@H](Cc1c[nH]cn1)C(=O)N[C@@]1(C)CCCC=CCCC[C@@](C)(C(=O)N[C@@H](CCCNC(=N)N)C(=O)N[C@@H](Cc2ccc(O)cc2)C(=O)N[C@@H](CCC(=O)O)C(=O)N[C@@H](C)C(=O)N[C@H](C(N)=O)C(C)C)NC(=O)[C@H](CCC(=O)O)NC(=O)[C@H](C)NC(=O)[C@H]([C@@H](C)O)NC1=O [Compound 17, Ac-RRIELARRHH$TAE$RYEAV-NH2] (Ac-RRIELARRHH[S5]TAE[S5]RYEAV-NH2; staple 11-15) |
| 11.5 | CC[C@H](C)[C@@H]1NC(=O)[C@H](CCCNC(=N)N)NC(=O)[C@H](CCCNC(=N)N)NC(=O)[C@@](C)(NC(=O)[C@H](CC(C)C)NC(=O)[C@H](CCC(=O)O)NC(=O)[C@H](CCCNC(=N)N)NC(C)=O)CCCC=CCCC[C@@](C)(C(=O)N[C@@H](CC(C)C)C(=O)N[C@@H](CS)C(=O)N[C@@H](CCCNC(=N)N)C(=O)N[C@@H](CCCNC(=N)N)C(=O)N[C@@H](Cc2c[nH]cn2)C(=O)N[C@@H](Cc2c[nH]cn2)C(=O)N[C@@H](CO)C(=O)N[C@H](C(N)=O)[C@@H](C)O)NC1=O [Compound 8, Ac-REL$RRI$LCRRHHST-NH2] (Ac-REL[S5]RRI[S5]LCRRHHST-NH2; staple 4-8) |
| > 20 | CC[C@H](C)[C@H](NC(=O)[C@H](CCCNC(=N)N)NC(=O)[C@H](CCCNC(=N)N)NC(=O)[C@H](CCCNC(=N)N)NC(=O)[C@H](CC(C)C)NC(=O)[C@H](C)NC(C)=O)C(=O)N[C@@]1(C)CCCC=CCCC[C@@](C)(C(=O)N[C@@H](Cc2c[nH]cn2)C(=O)N[C@@H](Cc2c[nH]cn2)C(=O)N[C@@H](CO)C(=O)N[C@H](C(N)=O)[C@@H](C)O)NC(=O)[C@H](C)NC(=O)[C@H](CO)NC(=O)[C@H](CC(C)C)NC1=O [Compound 21, Ac-ALRRRI$LSA$HHST-NH2] (Ac-ALRRRI[S5]LSA[S5]HHST-NH2; staple 7-11) |
| 3.7 | CC[C@@H]1NC(=O)[C@H](CC(C)C)NC(=O)[C@@](C)(NC(=O)[C@@H](NC(=O)[C@H](CCCNC(=N)N)NC(=O)[C@H](CCCNC(=N)N)NC(=O)[C@H](CCCNC(=N)N)NC(=O)[C@H](CC(C)C)NC(=O)[C@H](C)NC(=O)[C@H](CCCNC(=N)N)NC(C)=O)[C@@H](C)CC)CCCC=CCCC[C@@](C)(C(=O)N[C@@H](Cc2c[nH]cn2)C(=O)N[C@@H](Cc2c[nH]cn2)C(=O)N[C@@H](CO)C(=O)N[C@H](C(N)=O)[C@@H](C)O)NC(=O)[C@H](C)NC1=O [Compound 31, Ac-RALRRRI$LAbuA$HHST-NH2] (Ac-RALRRRI[S5]L[Abu]A[S5]HHST-NH2; staple 8-12) |
| 11.7 | CC[C@H](C)[C@@H]1NC(=O)[C@@](C)(NC(=O)[C@H](CCCNC(=N)N)NC(=O)[C@H](CCCNC(=N)N)NC(=O)[C@H](CC(C)C)NC(=O)[C@H](CCCNC(=N)N)NC(=O)[C@H](CCC(=O)O)NC(C)=O)CCCC=CCCC[C@@](C)(C(=O)N[C@@H](CCCNC(=N)N)C(=O)N[C@@H](CCCNC(=N)N)C(=O)N[C@@H](Cc2c[nH]cn2)C(=O)N[C@@H](Cc2c[nH]cn2)C(=O)N[C@@H](CO)C(=O)N[C@H](C(N)=O)[C@@H](C)O)NC(=O)[C@H](CC(C)C)NC(=O)[C@H](CCC(=O)O)NC1=O [Compound 16, Ac-ERLRR$IEL$RRHHST-NH2] (Ac-ERLRR[S5]IEL[S5]RRHHST-NH2; staple 6-10) |

Same assay, conditions: MOLT-4 cells, 48 hours incubation, CellTiter-Glo; read-out: Molt 4 viability (EC50)

| SMILES | EC50 [µM] |
| --- | --- |
| CC[C@H](NC(=O)[C@H](CC(C)C)NC(=O)[C@H](CCC(=O)O)NC(=O)[C@@H](NC(=O)[C@H](CCCNC(=N)N)NC(=O)[C@H](CCCNC(=N)N)NC(=O)[C@H](CCCNC(=N)N)NC(=O)[C@H](CC(C)C)NC(=O)[C@H](C)NC(C)=O)[C@@H](C)CC)C(=O)N[C@@H](C)C(=O)N[C@]1(C)CCCCCCC=CCCC[C@@](C)(C(=O)N[C@@H](CCCNC(=N)N)C(=O)N[C@@H](Cc2ccc(O)cc2)C(=O)N[C@@H](CCC(=O)O)C(=O)N[C@@H](C)C(=O)N[C@H](C(N)=O)C(C)C)NC(=O)[C@H](CCC(=O)O)NC(=O)[C@H](CC)NC(=O)[C@H]([C@@H](C)O)NC(=O)[C@H](CO)NC(=O)[C@H](Cc2c[nH]cn2)NC(=O)[C@H](Cc2c[nH]cn2)NC1=O [Compound 25, Ac-ALRRRIELAbuA$r8HHSTAbuE$RYEAV-NH2] (Ac-ALRRRIEL[Abu]A[R8]HHST[Abu]E[S5]RYEAV-NH2; staple 11-18) | > 20 |
